The values that follow come from patent US20260335495A1, “SYNERGISTIC ACTIVITY OF NOVEL COMPOUNDS AGAINST PLANKTONIC AND BIOFILM CELLS OF CLINICALLY RELEVANT PATHOGENS” (priority 2021, published 2026).

In data set [1] the test system is preformed biofilms of test pathogens. The data set is described as follows: MBEC and FBEC index, 48 h old biofilms, summary over strains. The note with it: alone: 4% tetrasodium EDTA, 50% ethanol, 100 μg/mL chlorhexidine HCl, 24 hours. It is filed as cell-based, bacterial and fungal strains. As to the method: The evaluation of the biofilm cultivation cell composition was evaluated using an MBEC Assay® biofilm inoculator, consisting of a polystyrene lid with 96 downward-protruding pegs and a corresponding base used to grow biofilms. A standardized inoculum was diluted in an appropriate biofilm growth medium to achieve a viable cell count of 1.5×10^6 CFU/mL of bacterial cells or 5×10^5 CFU/mL of fungal cells. Then, 150 μL of this inoculum was transferred into each appropriate well, and the peg lids were inserted into the microtiter plates. The plates were sealed with Parafilm and were incubated at optimum temperature for 48 h with slight rocking for bacteria and shaking at 200 rpm for fungal strains. After incubation, the peg lid was removed from the base and rinsed twice with sterile phosphate-buffered saline (PBS) for 2 min to remove loosely attached non-sessile cells. Before the antimicrobial challenge, the pegs in column 1 (n=8) were considered as the biofilm growth control; these pegs were removed from the lids, placed into 200 μL of recovery medium, and analyzed for starting biofilm cell numbers as described below. […] After the antimicrobial challenge, the pegs were rinsed twice with sterile PBS for 2 min and placed into a new 96-well plate containing 200 μL of recovery medium. The recovery plates were sealed with Parafilm, and biofilm cells were dislodged from the pegs by sonication for 30 min with a Branson 3510 bath sonicator. The biofilm cells in the recovery medium were serially diluted, and a drop dilution assay was performed to enumerate the viable cells.
In step (4), microtiter plates are incubated at 37 °C for 24 h. then (6), after incubation, the bacterial and fungal cells were dislodged from the pegs into the recovery medium described above.
Three 10-μL aliquots, for a total of 30 μL from each well of recovery medium, were spotted on MH agar plates and incubated for 24 hours at 37 °C. […] The FBEC determination is a modification of the FICI. […]

Another data set has as its system 12 test organisms. The data set is described as follows: MBC/MFC and FMCI, planktonic cells, summary over strains. Type of data set: cell-based, bacterial and fungal organisms. As to the method:
(§1) The MIC was determined by the micro broth dilution method in 96-well plates. […] A 10 μL containing 1×10^5 bacterial cells or 2×10^3 fungal cells were added to each well. The inoculated plates were covered with a lid, sealed with Parafilm, and incubated for 24 h at 37 °C with slight rocking on a tilting platform shaker. After incubation, the optical density at 600 nm (OD 600) of the cultures in each well was measured using an xMark™ Microplate Absorbance Spectrophotometer (Bio-Rad). The MIC was defined as the lowest concentration of antimicrobial compound at which the culture OD600 values was similar to uninoculated control wells. MBCs and MFCs were determined by transferring 100 μL from each well with no apparent growth onto appropriate agar plates, followed by incubation for 24 h at 37 °C.
(§2) The concentrations of antimicrobials used were based on previously determined MIC values. […] Microtiter plates were incubated at 37 °C for 24 h, and the results were analyzed. Each test was performed in duplicate and included a growth control without the addition of any antimicrobials.

In data set [2] the test system is bacterial and fungal biofilms. The data set is described as follows: Rapid eradication of 48-h-old biofilms within 2 h exposure. It is filed as cell-based, bacterial and fungal strains. The note with it: at the MBEC alone, 48-h-old biofilm. As to the method:
This example comprises performing biofilm growth as described above. After biofilm formation, control pegs (n=6) were removed and analyzed to determine the starting biofilm cell numbers via the drop dilution method. The 48-h old biofilms on the pegs were exposed to different concentrations of test antimicrobials, dissolved in an appropriate growth medium, for 2 hours to evaluate their efficacy alone and in combination. […] Following treatment, pegs were washed twice with sterile PBS, and the biofilm cells were dislodged into recovery medium and enumerated as described above.

Data set [3] deals with Stenotrophomonas maltophilia ON17. The data set is described as follows: MIC and checkerboard (FICI), planktonic cells. It is filed as cell-based. On the procedure:
as §1, §2

A further data set deals with E. coli SK2. The data set is described as follows: MIC and checkerboard (FICI), planktonic cells. It is filed as cell-based. As to the method:
as §1, §2

The test system of another data set is Serratia marcescens SK2. The data set is described as follows: MIC and checkerboard (FICI), planktonic cells. It is filed as cell-based. As to the method:
as §1, §2

Data set [4] has as its system Pseudomonas aeruginosa SK1. The data set is described as follows: MIC and checkerboard (FICI), planktonic cells. It is filed as cell-based. As to the method:
as §1, §2

The next data set deals with C. albicans ON47. The data set is described as follows: MIC and checkerboard (FICI), planktonic cells. It is filed as cell-based. As to the method:
as §1, §2

The subject of another data set is Escherichia coli ON29. As to the kind of experiment: MIC and checkerboard (FICI), planktonic cells. Type of data set: cell-based. As to the method: as §1, §2
The next data set relates to Proteus mirabilis ON153. The data set is described as follows: MIC and checkerboard (FICI), planktonic cells. It is filed as cell-based. As to the method: as §1, §2
In data set [5] the test system is Staphylococcus epidermidis ON170. The data set is described as follows: MIC and checkerboard (FICI), planktonic cells. Type of data set: cell-based. As to the method:
as §1, §2

The test system of data set [6] is Staphylococcus aureus ON89. As to the kind of experiment: MIC and checkerboard (FICI), planktonic cells. Type of data set: cell-based. As to the method:
as §1, §2

The test system of another data set is S. epidermidis SK9. The data set is described as follows: MIC and checkerboard (FICI), planktonic cells. It is filed as cell-based. On the procedure: as §1, §2
The next data set concerns Candida albicans SK4b. The data set is described as follows: MIC and checkerboard (FICI), planktonic cells. Type of data set: cell-based. On the procedure:
as §1, §2

The subject of the next data set is MRSA ON184. As to the kind of experiment: MIC and checkerboard (FICI), planktonic cells. Type of data set: cell-based, methicillin-resistant S. aureus. As to the method:
as §1, §2

The conditions of data set [7]: cited from earlier work.
In data set [8] the test system is human erythrocytes and neutrophils. The note with it: concentrations above 2%, in vitro; cited from earlier work.
For data set [9] the following is noted: overuse; cited from earlier work.
The next data set concerns biofilms. The note with it: cited from earlier work.
The next data set concerns S. aureus. The note with it: cited from earlier work.
Data set [10] relates to broad range of microbial species. The note with it: even at high concentrations; cited from earlier work.

Structures can show the parent of a compound that is named as a salt.

Consider `[H]/N=C(\N/C(=N/[H])NCCCCCCNC(=N)NC(=N)Nc1ccc(Cl)cc1)Nc1ccc(Cl)cc1` [CH, chlorhexidine HCl], for which the “eradication of all established biofilms” value in [1] was “able to eradicate all established biofilms”. The microbicidal activity entry in the data set on 12 test organisms is “broad-spectrum microbicidal activity”. The biofilm eradication entry in [2] is on record as “failed to eradicate the preformed biofilms”. For the same molecule, the MIC (usually the lowest concentration found to suppress growth) in [3] (Stenotrophomonas maltophilia, ON17, 24 h) is 0.8 µg/mL; with E. coli SK2 (Escherichia coli, SK2, 24 h) it was 0.4 µg/mL; in the data set on Serratia marcescens SK2 (Serratia marcescens, SK2, 24 h), 12.5 µg/mL; in data set [4] (Pseudomonas aeruginosa, SK1, 24 h) it was 1.6 µg/mL; with C. albicans ON47 (Candida albicans, ON47, 24 h), 1.6 µg/mL; with Escherichia coli ON29 (Escherichia coli, ON29, alone, 24 h, 37 °C, read-out: MIC), 0.4 µg/mL. Moreover, the MIC in the data set with Proteus mirabilis ON153 (Proteus mirabilis, ON153, alone, 24 h, 37 °C, read-out: MIC) was found to be 50 µg/mL; in data set [5] (Staphylococcus epidermidis, ON170, alone, 24 h, 37 °C, read-out: MIC), 0.1 µg/mL; in [6] (Staphylococcus aureus, ON89, alone, 24 h, 37 °C, read-out: MIC), 0.1 µg/mL; in the data set with S. epidermidis SK9 (Staphylococcus epidermidis, SK9, alone, 24 h, 37 °C, read-out: MIC) it was 0.1 µg/mL; with Candida albicans SK4b (Candida albicans, SK4B, 24 h), 1.6 µg/mL; in the data set on MRSA ON184 (Staphylococcus aureus, MRSA, alone, 24 h, 37 °C, read-out: MIC) it was 0.2 µg/mL. The MIC in combination in [3] (TE + CH in combination) is 0.2 µg/mL; in the data set on E. coli SK2 (TE + CH in combination), 0.1 µg/mL; in the data set on Serratia marcescens SK2 (TE + CH in combination), 1.5 µg/mL; in data set [4] (TE + CH in combination), 0.8 µg/mL; in the data set with C. albicans ON47 (TE + CH in combination) it was 0.8 µg/mL; in the data set with Escherichia coli ON29 (TE + CH in combination), 0.2 µg/mL. Also, the MIC in combination in the data set with Proteus mirabilis ON153 (TE + CH in combination) worked out at 0.8 µg/mL; in data set [5] (TE + CH in combination), 0.05 µg/mL; in data set [6] (TE + CH in combination), 0.1 µg/mL; in the data set with S. epidermidis SK9 (TE + CH in combination), 0.025 µg/mL; with Candida albicans SK4b (TE + CH in combination), 0.8 µg/mL; with MRSA ON184 (TE + CH in combination), 0.2 µg/mL.

For `[H]/N=C(\N/C(=N/[H])NCCCCCCNC(=N)NC(=N)Nc1ccc(Cl)cc1)Nc1ccc(Cl)cc1` [Chlorhexidine, 1,6-bis(4-chloro-phenylbiguanido)hexane], the mammalian toxicity result in data set [7] (in vivo) was “low mammalian toxicity”. The chemical burns result in data set [7] (infants) is “cause chemical burns in infants”. In addition, in data set [7] (perioperative and clinical care settings), the allergenicity result was “significant allergen”. In addition, the “effect on human erythrocytes and neutrophils” value in [8] was “fewer human erythrocytes and neutrophils in vitro”. In addition, the “reduced susceptibility and cross-resistance” value in [9] is “reduced susceptibility from its overuse and a cross-resistance to colistin”.

With Heparin, the “inhibition or eradication of biofilms” value with biofilms is given as “neither of these agents has the potential to inhibit or eradicate biofilms”. The “colonization of catheter surfaces” value in the data set with S. aureus was “promote the colonization of S. aureus on catheter surfaces”.

Consider `O=C(O)CN(CCN(CC(=O)O)CC(=O)O)CC(=O)O` [disodium EDTA], for which, in [10], the antimicrobial activity alone result is “not a potent antimicrobial agent (i.e., does not kill cells)”.
